Structures can show the parent of a compound that is named as a salt.
Legend:
Assay in all cases: viability inhibition at highest dose (% inhibition); higher = more growth inhibition
[1] = tested on: BT-474 Tam1; settings: 4-OH-tamoxifen in medium 1 µM; 72 h
Description: (§1)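 Percent inhibition of viability (CellTiter-Glo, 72 h) at the highest tested concentration (D5), normalised to DMSO (0%) and 100 µM benzethonium chloride (100%). Resistant lines and the 'in 1µM tamoxifen' arms were tested in 1 µM 4-OH-tamoxifen.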

[2] = tested on: BT-474 Tam2; settings: 4-OH-tamoxifen in medium 1 µM; 72 h
Description: as §1

[3] = tested on: BT-474; settings: 72 h
Description: as §1

[4] = tested on: MCF-7 Tam1; settings: 4-OH-tamoxifen in medium 1 µM; 72 h
Description: as §1

[5] = tested on: MCF-7; settings: 72 h
Description: as §1

[6] = tested on: T-47D Tam1; settings: 4-OH-tamoxifen in medium 1 µM; 72 h
Description: as §1

[7] = tested on: T-47D Tam2; settings: 4-OH-tamoxifen in medium 1 µM; 72 h
Description: as §1

[8] = tested on: T-47D; settings: 72 h
Description: as §1

[9] = tested on: ZR-75-1 Tam1; settings: 4-OH-tamoxifen in medium 1 µM; 72 h
Description: as §1

[10] = tested on: ZR-75-1 Tam2; settings: 4-OH-tamoxifen in medium 1 µM; 72 h
Description: as §1

[11] = tested on: ZR-75-1; settings: 72 h
Description: as §1

Row | Structure (SMILES) | viability inhibition at highest dose [1] | viability inhibition at highest dose [2] | viability inhibition at highest dose ([3]; 4-OH-tamoxifen in medium 0 µM) | viability inhibition at highest dose ([3]; 4-OH-tamoxifen in medium 1 µM) | viability inhibition at highest dose [4] | viability inhibition at highest dose ([5]; 4-OH-tamoxifen in medium 0 µM) | viability inhibition at highest dose ([5]; 4-OH-tamoxifen in medium 1 µM) | viability inhibition at highest dose [6] | viability inhibition at highest dose [7] | viability inhibition at highest dose ([8]; 4-OH-tamoxifen in medium 0 µM) | viability inhibition at highest dose ([8]; 4-OH-tamoxifen in medium 1 µM) | viability inhibition at highest dose [9] | viability inhibition at highest dose [10] | viability inhibition at highest dose ([11]; 4-OH-tamoxifen in medium 0 µM) | viability inhibition at highest dose ([11]; 4-OH-tamoxifen in medium 1 µM)
1 | Nc1nc2[nH]cc(CCc3ccc(C(=O)N[C@@H](CCC(=O)O)C(=O)O)cc3)c2c(=O)[nH]1 [Pemetrexed] (drug 10000 nM) | -2.78 | 4.1 | -2.99 | -11.2 | -1.81 | -15.5 | 14.3 | -2.82 | 9.3 | -12.4 | 8.3 | 1.51 | -6.3 | -12.7 | -4.01
2 | Nc1nc2[nH]cnc2c(=S)[nH]1 [Thioguanine] (drug 10000 nM) | 28.5 | 24 | 11.1 | 20.1 | 28.6 | 55.7 | 46.2 | 50.6 | 41.7 | 36.5 | 23.8 | 37.8 | 32.6 | 43.6 | 32.5
3 | CC[C@@]1(O)C(=O)OCc2c1cc1n(c2=O)Cc2cc3c(CN(C)C)c(O)ccc3nc2-1 [Topotecan] (drug 1000 nM) | 4.54 | 0.0411 | -20.8 | -23.9 | -1.83 | 11 | 23.7 | 46 | 27.9 | 52.2 | 5.37 | 40.6 | 48.3 | 49.4 | 38.6
4 | Cn1c(CCCC(=O)O)nc2cc(N(CCCl)CCCl)ccc21 [Bendamustine (hydrochloride hydrate)] (drug 10000 nM) | -12.7 | -4.38 | -0.115 | -10.7 | -4.92 | 17.8 | -4.09 | 0.785 | -2.82 | -0.126 | -12.1 | -0.263 | 5.86 | -7.06 | -2.1
5 | CN(C)c1nc(N(C)C)nc(N(C)C)n1 [Altretamine] (drug 10000 nM) | 4.18 | 0.399 | -14.8 | -18.3 | -9.06 | -20.5 | 10.6 | 52.4 | 5.82 | -20.9 | 18.5 | 0.782 | -11.8 | -19.3 | -9.44
6 | OC[C@H]1O[C@@H](n2cnc3c2N=CNC[C@H]3O)C[C@@H]1O [Pentostatin] (drug 10000 nM) | 30.3 | 16 | 15.9 | 13.3 | 19.7 | 47.4 | 30.7 | 48 | 35.5 | 45.1 | 28.1 | 46.9 | 40.8 | 48.5 | 41.3
7 | Oc1ccc2c(c1)CC[C@H](c1ccccc1)[C@@H]2c1ccc(OCCN2CCCC2)cc1 [Lasofoxifene] (drug 1000 nM) | 34.3 | 12.4 | -9.14 | 24.2 | -2.47 | 3.8 | 25 | 2.67 | 5.06 | -21.7 | -10.6 | 3.54 | 2.17 | -9.97 | -2.22
8 | CCc1cncnc1N1CCN(Cc2nc3ccc(C(F)(F)F)cc3[nH]2)CC1 (drug 10000 nM) | 68.5 | 41.4 | 36 | 53.7 | 20.7 | 37.2 | 33.2 | 33.4 | 31 | 33 | 15.3 | 17.9 | 25.5 | 18.5 | 28.3
9 | O=P(O)(NCCCl)NCCCl [Ifosfamide mustard] (drug 10000 nM) | -11.5 | -5.04 | -4.47 | -15.1 | -11 | -19.2 | -14.2 | -3.5 | -1.32 | -13.8 | -10.1 | 1.78 | 0.309 | -10.9 | -4.6
10 | CS(=O)(=O)c1ccc(C(=O)Nc2ccc(Cl)c(-c3ccccn3)c2)c(Cl)c1 [Vismodegib] (drug 10000 nM) | 18.7 | 6.56 | 2.54 | 9.28 | 10.9 | 8.35 | 5.18 | -0.759 | 3.9 | 3.38 | 6.47 | 5.76 | 10.7 | -1.58 | 4.37
11 | O=C(Nc1c[nH]nc1-c1nc2ccc(CN3CCOCC3)cc2[nH]1)NC1CC1 [AT9283] (drug 1000 nM) | 1.94 | 11.4 | -19.7 | -13.2 | -5.75 | -25.8 | -11 | -7.78 | 2.08 | -42.6 | -23.3 | -22.4 | -19.2 | -44.4 | -22.6
12 | COC(=O)C[C@](O)(CCCC(C)(C)O)C(=O)O[C@@H]1C(OC)=C[C@]23CCCN2CCc2cc4c(cc2[C@H]13)OCO4 [Omacetaxine (Homoharringtonine)] (drug 10000 nM) | 82.1 | 73.4 | 19.5 | 75 | 62.7 | 82.1 | 75.5 | 74.5 | 71.4 | 81.1 | 55.6 | 53.7 | 76.1 | 54.1 | 52.2
13 | C1CN1c1nc(N2CC2)nc(N2CC2)n1 [Triethylenemelamine] (drug 10000 nM) | 7.12 | -2.97 | -11.5 | -8.95 | -10.7 | 1.71 | -13.7 | 19.6 | 13 | -11.6 | -10.3 | -3.65 | -10 | -18.1 | -2.81
